Assay results as given in patent US20030023386A1, “Metabolome profiling methods using chromatographic and spectroscopic data in pattern recognition analysis” (priority 2001, published 2003).

Tests used:
[1] = tested on: corn (Zea mays) seedlings; assay: Blind test: NN recognition of mode-of-action of herbicides not used in training; format: in vivo; settings: NN trained only with untreated, PURSUIT, Diuron, Sethoxydim, Glyphosate; different herbicide concentrations
Experimental: As an example, we have used the NN trained and validated as shown in the above Example 3. It was trained to recognize untreated, PURSUIT®, Diuron, Sethoxydim, and Glyphosate treatment. In a blind test, we presented pattern from samples that were treated with no herbicide or different concentrations of various herbicides. In addition to the herbicides used in the training set, two other imidazolinones: ASSERT® and ARSENAL® (imazapyr and imazamethabenz) and two sulfonylureas GLEAN® and OUST® (chlorsulfuron and sulfometuron) were chosen, and the plants were treated as described above. For the blind test of the ANN analysis tool the samples only the two first to batches contributed samples to the training set. Thereby, the neuronal network had to truly recognized new batches with many samples having compound treatments applied that were unknown to the NN. In summary, we found a complete success of the methodology: The neuronal network classifies all untreated samples correctly as untreated, assigns the correct herbicide treatment for all herbicides that have been previously presented to the NN during training, even if such samples originated from batches that were not part of the NN training.
Note that the learning output target for the test spectra is zero in all cases in FIG. 4a and 4b. The total SSE in the calculation was high because of the difference between the given output value (zero) and the calculated value, but the spectra were correctly classified in all cases as belonging to the second output node, which is imazethapyr or AHAS inhibition. Similar results were obtained for the second set of experiments.

[2] = tested on: Corn plants (Zea mays), Pioneer 3514; assay: Herbicide mode-of-action recognition by 1H NMR of plant isolates and neural network analysis (Example 8); format: in vivo; settings: for herbicide treatment group assigned by the neural network: chemically different AHAS inhibitors, output unit activation vs. treatment group; for output unit activation: small NN trained with first batch, tested on second batch, four herbicide groups and control
Experimental: Zea mays seeds (Pioneer 3514) were set to germinate in paper towel rolls in tap water for 5 days in the growing chamber. The environment was adjusted to “summer conditions” (day/night ratio of 14/10 hours, regulated temperature of 27° C. and humidity of 70%). After germination the seedlings were visually inspected. Seedlings that were homogeneous in size and appearance were selected, set in 50-ml amber bottles in 25-ml Hoagland nutrient solution (12 ml micronutrients stock solution, 12 ml FeEDTA (5 g/100 ml), 2.4 ml KH2PO4 (1 M), 24 ml MgSO4 (1 M), 60 ml KNO3 (1 M), 60 ml Ca(NO3)2 (1 M), and 60 ml MES buffer (200 mM), diluted to 12 litre with deionized water) and grown for 5 more days, after which they reached the three-leaf stage. At this point, 20 μl of a stock solution of technical grade herbicide in acetone (see Table I) was added to the hydroponic solution or applied to the second leaf (with similar results). The control group of “Untreated Plants” received 20 μl acetone only and all of the plants were returned to the growing chamber.
Twenty-four hours post-treatment, the plants were harvested by excising between the coleoptile and the first leaf collar. At this time, the plants show only slight growth stunting in response to the treatments. The first leaf sheet was separated and the meristematic tissue (approximately 250 to 300 mg per plant) was collected, flash frozen in liquid nitrogen in a cryogenic 3 ml tube, and stored in a liquid nitrogen freezer until further use. The plant meristems were each pulverized in a mortar (under liquid N2), suspended in 2.4 ml of HCl solution (0.25N) and centrifuged at 14000 g, 4° C., for 60 minutes. The NMR samples were prepared from 0.8 ml of the supernatants and 0.2 ml D2O (with TSP 0.05 w/v) and kept on ice.
The 500 MHz ^1H NMR spectra of plant extracts were recorded using a Bruker AMX 500 NMR spectrometer equipped with a TXI 5 mm probe. The probe temperature was carefully regulated using the Bruker/Haake variable temperature accessory, and all spectra were recorded under identical experimental conditions, as shown in Table 10:
The time-domain NMR spectra (“FIDs”) were exponential multiplied (LB=0.5 Hz), Fourier transformed, and then phase- and baseline-corrected manually. The frequency domain were exported by the NMR software as J-CAMP formatted files, which were stored in a UNIX subdirectory for “preprocessing” via NN_Tools, as described below.
The frequency domain NMR spectra were “preprocessed” by NN_Tools as follows: J-CAMP formatted spectra files were converted into vectors (8 k real data points), and the files were renamed (renumbered) in order to be processed by further programs in an automatic fashion. A window of points was cut from the central part (around O1) of each vector to delete the residual water signal. Then points were cut from the low field and high field parts of the vector, because no resonance signals were detectable in these regions. Groups of typically five (5) adjacent points were averaged in histogram fashion (“bining”) and the resulting “preprocessed” spectrum comprised 1080 data points. Finally, vertical scaling was applied to meet the signal amplitude requirements of the neural network software.
The artificial neural network calculations described in the report were performed using a standard software package, the Stuttgart Neural Network Simulator (SNNS), on a Silicon Graphics Inc. (SGI) UNIX workstation. A convenient interface called NN_Tools, was developed in-house to perform NMR spectral preprocessing and to format the raw data for input to SNNS. NN_Tools comprises a set of Perl scripts which form patterns out of NMR spectra that can be input automatically to SNNS for the training, validation, and testing steps of neural network simulation. This free software package (“freeware”) was developed at the Institute for Parallel and Distributed High Performance Systems at the University of Stuttgart, Germany. […]

[3] = tested on: corn (Zea mays) seedlings (Pioneer 3514); assay: Neural network recognition of treatment from 1H NMR spectra of corn seedling extracts (training/validation cycle); format: in vivo; settings: for Network Recognition: validation set sel4c.pat, NN trained with 15 spectra (sel4.pat), meristematic tissue harvested 24 hours after treatment
Experimental: For example, corn (Zea mays) seeds (Pioneer 3514) were set to germinate in paper towel rolls in tap water covered with plastic foil (to minimize evaporation) for 5 days in the growing chamber. Conditions were adjusted to “summer days” (day/night 14/10 hours, controlled temperature 27° C. and humidity 70%). After germination the seedlings were visually inspected. Seedlings that were homogeneous in size and appearance were selected and set to grow in hydroponic Hoagland culture solution.
Each seedling was set in a 50 mL dark bottle in 25 mL Hoagland nutrient solution. The plants were then grown for 5 more days after they had reached the three-leaf stage. At this point the hydroponic solution was changed and the seedlings were treated as follows:
Different herbicide stock solutions in acetone were added in concentrated form to the hydroponic solution or, in the case of control plants with 20 μL acetone, or
The hydroponic solution was replaced by a solution containing different concentrations of herbicides, or just hydroponic nutrient solution for control plants.
All herbicides were technical grade. The plants were returned to the growing chamber after treatment. After 24 hours, the plants were harvested by excising between the coleoptile and the first leaf collar. The first leaf sheet was separated and the meristematic tissue collected was flash frozen in liquid nitrogen in a cryogenic 3 ml tube and stored in the liquid nitrogen freezer until further use.
For example, frozen meristematic tissue was placed in a mortar and liquid nitrogen was added. The pestle was also allowed to cool in the liquid nitrogen. When the liquid nitrogen was evaporated, the plant tissue was pulverized in the mortar. Then, 2.4 mL of 0.25N aq. HCl solution were added to the mortar and the sample was further mixed with the pestle. The suspension was placed into an Eppendorf centrifuge tube and set in ice until all the samples for an experiment were processed for centrifugation. The samples were centrifuged at 14000 g, at 4° C., for 60 minutes. The supernatant was separated from the pellet and 0.8 mL taken and mixed with 0.2 mL D2O (with TSP 0.05 w/v for NMR reference) for the lock signal in the spectrometer. The samples were kept in ice until NMR measurement.
The proton NMR spectra of plant extracts were recorded using a Bruker AMX 500 NMR spectrometer equipped with a TXI 5 mm probe. The probe temperature was carefully regulated to better than ±0.1 K using the Bruker/Haake variable temperature accessory, and all spectra were recorded under identical experimental conditions, as follows:
The NMR spectra were multiplied with an exponential function (LB parameter=0.5 Hz), Fourier transformed, and manually phase- and baseline-corrected. Spectra were, in an automatic fashion, exported into JCAMP-DX format and converted into pattern vectors for pattern recognition approaches. A window of points was removed from the central part of each vector prior to analysis, to avoid the water residual signal as shown in FIG. 2. Also, data points were removed at the low field and high field portions of the spectral vector because no resonance signals were detectable in these regions.
A first set of 71 spectra, with 3 batches of 6-9 control samples, 2 batches with 15 PURSUIT® treated samples, and one batch each with 6(4) Sethoxydim, Glyphosate, and Diuron treated samples. Two plants fouled after the herbicide treatment phase, and were treated as separate category, exemplifying samples with very different properties. […]

[4] = tested on: IR corn (Pioneer 3395, homozygotic, PURSUIT resistant); settings: saturated solution of PURSUIT; cited from earlier work
[5] = tested on: WT corn (Pioneer 3514, PURSUIT sensitive); assay: Phenotypic response of corn lines to PURSUIT in hydroponic medium, wild type line; format: in vivo, Zea mays
Experimental: In these experiments, seedlings from three genetically different corn seed lines were germinated, grown in hydroponic medium, excised, extracted and measured as described before. The plants belong to “wild type” (WT, Pioneer 3514, PURSUIT® sensitive), imidazolinone-tolerant (IT, Gerst 8541 heterozygotic, PURSUIT® tolerant), and imidazolinone-resistant (IR, Pioneer 3395, homozygotic, PURSUIT® resistant) lines.
Two batches with five seedlings each from WT, IR, and IT lines, were grown at various levels of PURSUIT® concentration, as follows in Table 5:
The different lines of corn can be distinguished phenotypically at growing levels of herbicide treatment. […] For WT, herbicidal effects are already observed at the lowest (41 μM) PURSUIT® concentration. On the other hand even the IR lines are affected by concentrations of imidazolinones so high as 4 mM. The plants were harvested after only 24 hours after treatment such that phenotypic differences were restricted to the development (or lack) of the fourth leaf. It is important to harvest at an early stage to avoid that the plants become senescent. The senescence process produces accumulation of a series of metabolites that would obscure the metabolic profile response associated with one specific mode of action.

Compound | NN classification of treatment / mode-of-action in blind test [1] | herbicide treatment group assigned by the neural network [2] | Network Recognition [3] | output unit activation [2] | further results
CC(C)C1(C)N=C(c2ncccc2C(=O)O)NC1=O (stereo not drawn) [ARSENAL®, imazapyr] | correctly assigned as AHAS inhibitors | imazethapyr |  |  | 
CC(NC(=O)C(C)NC(=O)C(N)CCP(C)(=O)O)C(=O)O (stereo not drawn) [Bialaphos] |  |  |  |  | signs of damage of treated plants ([2]; 24-hours post-application, bialaphos formulation): # presented much stronger signs of damage than all the others. Formulations usually produce an effect of faster absorption and sometimes translocation that increases the metabolic response.
CN(C)C(=O)Nc1ccc(Cl)c(Cl)c1 [Diuron] |  |  | Diuron | ~1 | NMR spectral changes of treated samples versus controls ([3]; 1H NMR of corn seedling extracts): most changes versus controls in the resonance region of the sugar-proton
COc1nc(C)nc(NC(=O)NS(=O)(=O)c2ccccc2Cl)n1 [GLEAN®, chlorsulfuron] | correctly assigned as AHAS inhibitors | imazethapyr |  |  | 
O=C(O)CNCP(=O)(O)O [Glyphosate] |  |  | Glyphosate | ~1 | 
Cc1cc(C)nc(NC(=O)NS(=O)(=O)c2ccccc2C(=O)O)n1 [OUST®, sulfometuron] | correctly assigned as AHAS inhibitors | imazethapyr |  |  | 
CCc1cnc(C2=NC(C)(C(C)C)C(=O)N2)c(C(=O)O)c1 (stereo not drawn) [PURSUIT ®, imazethapyr] |  |  | PURSUIT ® | ~1 | phenotypic response of IR plants [4]: growth arrest; PURSUIT concentration at which herbicidal effects are observed ([5]; WT line, lowest concentration tested, hydroponic): ≤ 41 µM; phenotypic response observed ([5]; growing levels of herbicide treatment, within 48 hours): total arrest on the growth of the plants and their wilting
CCC/C(=N\OCC)C1=C(O)CC(CC(C)SCC)CC1=O (stereo not drawn) [Sethoxydim] |  |  | Sethoxydim | ~1 | 
imazamethabenz [ASSERT®] | correctly assigned as AHAS inhibitors | imazethapyr |  |  | 
